{"source": "patent US6204067A", "about": "“Methods of identifying modulators of the estrogen receptor” (Board of Trustees Operating Michigan State University, priority 1999, dated 2001)", "key": {"[1]": {"tested_on": "microsomes isolated from MCF-7/ADR cells", "assay": "In vitro acidification of MCF-7/ADR microsomes (acridine orange quenching)", "type": "biochemical", "procedure": "Cells were grown in Minimal Essential. Medium supplemented with 10% Fetal Bovine Serum to confluence in 10 level Cell Factories (Nunc, Naperville, Ill.), trypsinized, washed 3× with cold PBS and lysed with a Dounce homogenizer (Pestle A) in 0.25 M sucrose, 20 mM HEPES (pH 7.4), 1 mM DTT, 1 mM EDTA, and 1× protease inhibitor mix (1 μg/ml leupeptin, 1 μ/ml pepstatin A, 1 μg/ml aprotinin, and 16 μM PMSF mixed to 100× before use). The homogenate was centrifuged twice for 10 minutes at 3000×g to remove unbroken cells and nuclei. The supernatant was layered over 20 ml of 0.5 M sucrose (20 mM HEPES (pH 7.4), 1 mM DTT, 1 mM EDTA, 1× protease inhibitor mix) and 1 ml of 2 M sucrose and centrifuged for 1 hour at 100,000 g (Beckman Ti60 Rotor). Microsomes are collected at the 0.5M and 2M interface.\nTo monitor acidification of the total microsomal fraction, the quenching of AO fluorescence was monitored essentially as described previously [Barasch et al., Nature 352:70-73 (1991)]. Acidic vesicles accumulate AO to high concentrations resulting in the self quenching of the dye and a decrease of the overall fluorescence. Fluorescence was measured on an SLM Aminco-Bowman series 2 luminescence spectrometer with λex =488 nm and λem =530 nm Microsomes (80 μg protein) were suspended in 2.5 ml vesicle buffer (125 mM KCl, 5 mM MgCl2, 20 mM HEPES (pH 7.4), 1 mM DTT, 1 mM EDTA, 2 mM NaN3), with 6 μM AO (5 mM stock in H2 O) in a cuvet. […] After equilibration for 30 minutes at 25° C. 1 mM Tris-ATP was added to begin acidification (100 mM stock, titrated to pH 7.4 with 1 M Tris-base before use). Twenty minutes later, 2.5 μM of nigericin (10 mM stock in EtOH) was added to dissipate any ΔpH formation.\nAcridine orange (AO) was used as a probe for lumenal acidification. As vesicles acidify, they accumulate AO to self-quenching concentrations, and deplete the extra-vesicular free AO, resulting in a decrease in total fluorescence. Acidification was initiated by the addition of ATP to a purified microsomal fraction in the absence of cytosol (FIG. 1A, at t=300 sec). […] Nigericin, a K^+ /H^+ exchanger that rapidly dissipates pH gradients, was added at the end of each reaction (t=1500 seconds)."}, "[2]": {"conditions": "NMR in 10% Triton solution; cited from earlier work"}, "[3]": {"tested_on": "E. coli inverted membrane vesicles", "assay": "Acidification of E. coli inverted membrane vesicles (acridine orange)", "type": "biochemical", "conditions": "0.63 μM, 2 μM, 10 μM; similar dose dependence as mammalian and yeast vesicles", "procedure": "InV were prepared from the DH5α strain as described [Simon and Blobel, Cell 69:677-684 (1992)]. Acidification was measured using AO as described above.\nUnlike mammalian or yeast vesicles, InV utilize the F0 F1 -ATPase for acidification and are composed of different types of lipids, including an abundance of cardiolipin and a lack of sterols."}, "[4]": {"tested_on": "recycling endosomes of MCF-7/ADR cells", "assay": "In vitro acidification of recycling endosomes (FITC-transferrin)", "type": "biochemical", "procedure": "Acidification from the recycling endosomal fraction was monitored by first incubating cells with FITC-transferrin for 30 minutes before lysis and isolation of microsomes. Acidification was monitored by excitation of the FITC fluorophore at 450 and 488 nm and measuring λem =520 nm as described previously.\nTo specifically examine the acidification of the endosomes in vitro, in vitro acidification was assayed using FITC-transferrin which is constrained by the transferrin receptor to the endocytic pathway. MCF-7/ADR cells were incubated with FITC-transferrin before lysis and isolation of microsomes. Since this assay is not based on the redistribution of probes, it further serves as verification that AO quenching resulted from vesicular acidification. Upon addition of ATP, there was a decrease in the ratio of the FITC-emission (FIG. 1C). This signal was the consequence of acidification, since it was reversed upon the addition of nigericin."}, "[5]": {"assay": "Liposome chloride concentration (lucigenin)"}, "yeast vacuoles": {"tested_on": "yeast vacuoles", "assay": "Vm of yeast vacuoles (Oxonol V)", "type": "biochemical, S. cerevisiae", "conditions": "10 μM, KCl or K-gluconate buffer, 2.5 mM ATP", "quoted_text": "Oxonol V is a membrane permeable anionic fluorescent probe that accumulates into the inner leaflet of vesicles with positive Vm, resulting in quenching of fluorescence. Vacuoles were suspended in chloride or gluconate vesicle buffer with 1 μM Oxonol V. Fluorescence was measured with a λex =600 nm and λem =630 nm. After fluorescence has equilibrated, vacuoles were added and the fluorescence is allowed to re-equilibrate. Then, 1 mM Tris-ATP was added and the resulting positive Vm was manifested in fluorescence quenching.\nThe fluorescent dye Oxonal V was used to monitor Vm.\nThe Vm was monitored in either KCl or K-gluconate buffer (FIG. 3A)."}}}
{"molecule": "CC/C(=C(\\c1ccccc1)c1ccc(OCCN(C)C)cc1)c1ccccc1", "note": "[tamoxifen]", "values": [{"measurement": "time to almost complete dissipation of the pH gradient", "setting": "[1]; added 10 minutes after ATP, 8 μM tamoxifen (FIG. 1B)", "value": "≤ 5", "unit": "minutes"}, {"measurement": "rate of dissipation of pre-existing pH gradient", "setting": "[1]; added 10 minutes after ATP, tamoxifen 8 μM, bafilomycin A1 100 nM", "value": "rapidly reversed acidification"}, {"measurement": "concentration at which acidification was totally blocked", "setting": "[1]; pre-treated 30 minutes", "value": 8, "unit": "µM"}, {"measurement": "concentration at which inhibition of acidification was evident", "setting": "[1]; pre-treated 30 minutes", "value": 1, "unit": "µM"}, {"measurement": "pKa", "setting": "[2]", "value": 6.9}, {"measurement": "effect on ATP-dependent acidification of InV", "setting": "[3]", "value": "inhibited acidification"}, {"measurement": "effect on ATP-dependent acidification of recycling endosomes", "setting": "[4]; 2.5 μM added after ATP", "value": "partially reversed the acidification"}, {"measurement": "effect on ATP-dependent acidification of recycling endosomes", "setting": "[4]; concentration raised an additional 2.5 μM", "value": "farher reduced"}, {"measurement": "rate of chloride influx in the presence of valinomycin", "setting": "[5]; 4 μM tamoxifen with 1 μM valinomycin, 50 mM KCl", "value": "increased the rate of chloride influx"}, {"measurement": "rate of chloride influx into liposomes", "setting": "[5]; after addition of 50 mM KCl, tamoxifen 2, 4, 8 μM, valinomycin 1 μM", "value": "dose dependent increase in the rate of chloride influx"}, {"measurement": "effect on Vm generated by the vATPase", "setting": "yeast vacuoles", "value": "significantly decreased the Vm"}]}
